What was measured:
Experiment in all cases: relative viability (nuclei count vs DMSO), 5 days (fraction); higher = more cells survive
[1] = system: HCC-44
How it was run: (§1)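 Relative viability was taken as the ratio of nuclei in treated wells to nuclei in vehicle wells. Lung cancer cell lines in 1536-well plates received compounds by pin tool one day after seeding, either one drug alone or a fixed anchor-drug dose plus five library-drug doses (not always all listed) in √10 steps. Nuclei were counted on 4× images after 5 days of treatment, and values are medians of duplicate plates.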

[2] = system: NCI-H596
How it was run: as §1

[3] = system: A-427
How it was run: as §1

[4] = system: NCI-H2347
How it was run: as §1

[5] = system: LCLC-97TM1
How it was run: as §1

[6] = system: NCI-H1563
How it was run: as §1

[7] = system: LCLC-103H
How it was run: as §1

[8] = system: LC-2-ad
How it was run: as §1

[9] = system: LU99A
How it was run: as §1

[10] = system: 201T
How it was run: as §1

[11] = system: H3255
How it was run: as §1

[12] = system: PC-14
How it was run: as §1

[13] = system: NCI-H727
How it was run: as §1

[14] = system: COR-L23
How it was run: as §1

[15] = system: LK-2
How it was run: as §1

[16] = system: NCI-H23
How it was run: as §1

[17] = system: NCI-H2228
How it was run: as §1

[18] = system: NCI-H1793
How it was run: as §1

[19] = system: SW 1573
How it was run: as §1

[20] = system: NCI-H460
How it was run: as §1

[21] = system: PC-3 [JPC-3]
How it was run: as §1

[22] = system: SW 900
How it was run: as §1

[23] = system: NCI-H1650
How it was run: as §1

## CCN(CC)CCCCNc1ncc2cc(-c3cc(OC)cc(OC)c3)c(NC(=O)NC(C)(C)C)nc2n1 + C[C@]1(O)C[C@@H](c2nc(-c3ccc4ccc(-c5ccccc5)nc4c3)c3c(N)nccn32)C1 [Linsitinib] (partner 1 µM)
[1]; first compound 0.01 µM
  relative viability: 0.752
[1]; first compound 0.03162 µM
  relative viability: 0.709
[1]; first compound 0.1 µM
  relative viability: 0.749
[1]; first compound 0.3162 µM
  relative viability: 0.684
[1]; first compound 1 µM
  relative viability: 0.614
[2]; first compound 0.01 µM
  relative viability: 1.1
[2]; first compound 0.03162 µM
  relative viability: 1.05
[2]; first compound 0.1 µM
  relative viability: 1.05
[2]; first compound 0.3162 µM
  relative viability: 1.07
[2]; first compound 1 µM
  relative viability: 0.814
[3]; first compound 0.01 µM
  relative viability: 1.12
[3]; first compound 0.03162 µM
  relative viability: 1.17
[3]; first compound 0.1 µM
  relative viability: 1.21
[3]; first compound 0.3162 µM
  relative viability: 1.18
[3]; first compound 1 µM
  relative viability: 0.993
[4]; first compound 0.01 µM
  relative viability: 0.93
[4]; first compound 0.03162 µM
  relative viability: 0.999
[4]; first compound 0.1 µM
  relative viability: 0.916
[4]; first compound 0.3162 µM
  relative viability: 1.05
[4]; first compound 1 µM
  relative viability: 0.889
[5]; first compound 0.03162 µM
  relative viability: 0.176
[5]; first compound 0.1 µM
  relative viability: 0.23
[5]; first compound 0.3162 µM
  relative viability: 0.199
[5]; first compound 1 µM
  relative viability: 0.216
[6]; first compound 0.01 µM
  relative viability: 1.29
[6]; first compound 0.03162 µM
  relative viability: 1.34
[6]; first compound 0.1 µM
  relative viability: 1.13
[6]; first compound 0.3162 µM
  relative viability: 1.09
[6]; first compound 1 µM
  relative viability: 0.889
[7]; first compound 0.01 µM
  relative viability: 1.17
[7]; first compound 0.03162 µM
  relative viability: 1.11
[7]; first compound 0.1 µM
  relative viability: 1.2
[7]; first compound 0.3162 µM
  relative viability: 1.09
[7]; first compound 1 µM
  relative viability: 1.15
[8]; first compound 0.01 µM
  relative viability: 0.803
[8]; first compound 0.03162 µM
  relative viability: 0.913
[8]; first compound 0.1 µM
  relative viability: 0.958
[8]; first compound 0.3162 µM
  relative viability: 0.876
[8]; first compound 1 µM
  relative viability: 0.757
[9]; first compound 0.01 µM
  relative viability: 0.557
[9]; first compound 0.03162 µM
  relative viability: 0.565
[9]; first compound 0.1 µM
  relative viability: 0.565
[9]; first compound 0.3162 µM
  relative viability: 0.583
[9]; first compound 1 µM
  relative viability: 0.517
[10]; first compound 0.01 µM
  relative viability: 1.07
[10]; first compound 0.03162 µM
  relative viability: 1.02
[10]; first compound 0.1 µM
  relative viability: 1.07
[10]; first compound 0.3162 µM
  relative viability: 1.12
[10]; first compound 1 µM
  relative viability: 1.02
[11]; first compound 0.01 µM
  relative viability: 1.02
[11]; first compound 0.03162 µM
  relative viability: 1.04
[11]; first compound 0.1 µM
  relative viability: 0.986
[11]; first compound 0.3162 µM
  relative viability: 1.06
[11]; first compound 1 µM
  relative viability: 0.892
[12]; first compound 0.01 µM
  relative viability: 1.01
[12]; first compound 0.03162 µM
  relative viability: 1.03
[12]; first compound 0.1 µM
  relative viability: 1.02
[12]; first compound 0.3162 µM
  relative viability: 1.09
[12]; first compound 1 µM
  relative viability: 0.885
[13]; first compound 0.01 µM
  relative viability: 0.297
[13]; first compound 0.03162 µM
  relative viability: 0.251
[13]; first compound 0.1 µM
  relative viability: 0.293
[13]; first compound 0.3162 µM
  relative viability: 0.363
[13]; first compound 1 µM
  relative viability: 0.301
[14]; first compound 0.01 µM
  relative viability: 1
[14]; first compound 0.03162 µM
  relative viability: 1.2
[14]; first compound 0.1 µM
  relative viability: 1.15
[14]; first compound 0.3162 µM
  relative viability: 1.09
[14]; first compound 1 µM
  relative viability: 0.948
[15]; first compound 0.01 µM
  relative viability: 0.536
[15]; first compound 0.03162 µM
  relative viability: 0.339
[15]; first compound 0.1 µM
  relative viability: 0.401
[15]; first compound 0.3162 µM
  relative viability: 0.356
[15]; first compound 1 µM
  relative viability: 0.17
[16]; first compound 0.01 µM
  relative viability: 0.669
[16]; first compound 0.03162 µM
  relative viability: 0.63
[16]; first compound 0.1 µM
  relative viability: 0.644
[16]; first compound 0.3162 µM
  relative viability: 0.601
[16]; first compound 1 µM
  relative viability: 0.516
[17]; first compound 0.01 µM
  relative viability: 0.741
[17]; first compound 0.03162 µM
  relative viability: 0.834
[17]; first compound 0.1 µM
  relative viability: 0.872
[17]; first compound 0.3162 µM
  relative viability: 1.07
[17]; first compound 1 µM
  relative viability: 0.635
[18]; first compound 0.01 µM
  relative viability: 1.14
[18]; first compound 0.1 µM
  relative viability: 1.02
[18]; first compound 0.3162 µM
  relative viability: 1.03
[18]; first compound 1 µM
  relative viability: 0.656
[19]; first compound 0.01 µM
  relative viability: 0.811
[19]; first compound 0.03162 µM
  relative viability: 0.785
[19]; first compound 0.1 µM
  relative viability: 0.892
[19]; first compound 0.3162 µM
  relative viability: 0.734
[19]; first compound 1 µM
  relative viability: 0.789
[20]; first compound 0.01 µM
  relative viability: 1.05
[20]; first compound 0.03162 µM
  relative viability: 0.985
[20]; first compound 0.1 µM
  relative viability: 0.868
[20]; first compound 0.3162 µM
  relative viability: 1.58
[20]; first compound 1 µM
  relative viability: 0.293
[21]; first compound 0.01 µM
  relative viability: 0.999
[21]; first compound 0.03162 µM
  relative viability: 0.982
[21]; first compound 0.1 µM
  relative viability: 0.954
[21]; first compound 0.3162 µM
  relative viability: 1.03
[21]; first compound 1 µM
  relative viability: 0.993

## COc1nc(C)cnc1NS(=O)(=O)c1cccnc1-c1ccc(-c2nnco2)cc1 [Zibotentan] + CC(=O)Nc1cccc(-n2c(=O)n(C3CC3)c(=O)c3c(Nc4ccc(I)cc4F)n(C)c(=O)c(C)c32)c1 [Trametinib] (partner 0.02 µM)
[22]; first compound 0.08 µM
  relative viability: 0.893
[22]; first compound 0.253 µM
  relative viability: 0.817
[22]; first compound 0.8 µM
  relative viability: 0.846
[22]; first compound 2.53 µM
  relative viability: 0.751
[1]; first compound 0.08 µM
  relative viability: 1.11
[1]; first compound 0.253 µM
  relative viability: 1
[1]; first compound 0.8 µM
  relative viability: 0.953
[1]; first compound 2.53 µM
  relative viability: 1.07
[2]; first compound 0.08 µM
  relative viability: 0.801
[2]; first compound 0.253 µM
  relative viability: 0.8
[2]; first compound 0.8 µM
  relative viability: 0.791
[2]; first compound 2.53 µM
  relative viability: 0.714
[3]; first compound 0.08 µM
  relative viability: 0.813
[3]; first compound 0.253 µM
  relative viability: 0.72
[3]; first compound 0.8 µM
  relative viability: 0.845
[3]; first compound 2.53 µM
  relative viability: 0.83
[4]; first compound 0.08 µM
  relative viability: 0.252
[4]; first compound 0.253 µM
  relative viability: 0.272
[4]; first compound 0.8 µM
  relative viability: 0.339
[4]; first compound 2.53 µM
  relative viability: 0.287
[5]; first compound 0.08 µM
  relative viability: 0.217
[5]; first compound 0.253 µM
  relative viability: 0.213
[5]; first compound 0.8 µM
  relative viability: 0.198
[5]; first compound 2.53 µM
  relative viability: 0.2
[7]; first compound 0.08 µM
  relative viability: 0.685
[7]; first compound 0.253 µM
  relative viability: 0.704
[7]; first compound 0.8 µM
  relative viability: 0.68
[7]; first compound 2.53 µM
  relative viability: 0.737
[8]; first compound 0.08 µM
  relative viability: 0.928
[8]; first compound 0.253 µM
  relative viability: 0.858
[8]; first compound 0.8 µM
  relative viability: 0.913
[8]; first compound 2.53 µM
  relative viability: 0.935
[9]; first compound 0.08 µM
  relative viability: 0.598
[9]; first compound 0.253 µM
  relative viability: 0.547
[9]; first compound 0.8 µM
  relative viability: 0.537
[9]; first compound 2.53 µM
  relative viability: 0.585
[10]; first compound 0.08 µM
  relative viability: 0.714
[10]; first compound 0.253 µM
  relative viability: 0.714
[10]; first compound 0.8 µM
  relative viability: 0.734
[10]; first compound 2.53 µM
  relative viability: 0.746
[11]; first compound 0.08 µM
  relative viability: 0.659
[11]; first compound 0.253 µM
  relative viability: 0.607
[11]; first compound 0.8 µM
  relative viability: 0.667
[11]; first compound 2.53 µM
  relative viability: 0.626
[12]; first compound 0.08 µM
  relative viability: 0.833
[12]; first compound 0.253 µM
  relative viability: 0.752
[12]; first compound 0.8 µM
  relative viability: 0.733
[12]; first compound 2.53 µM
  relative viability: 0.735
[13]; first compound 0.08 µM
  relative viability: 0.371
[13]; first compound 0.253 µM
  relative viability: 0.415
[13]; first compound 0.8 µM
  relative viability: 0.441
[13]; first compound 2.53 µM
  relative viability: 0.439
[14]; first compound 0.08 µM
  relative viability: 0.573
[14]; first compound 0.253 µM
  relative viability: 0.531
[14]; first compound 0.8 µM
  relative viability: 0.831
[14]; first compound 2.53 µM
  relative viability: 0.555
[15]; first compound 0.08 µM
  relative viability: 0.881
[15]; first compound 0.253 µM
  relative viability: 0.793
[15]; first compound 0.8 µM
  relative viability: 0.83
[15]; first compound 2.53 µM
  relative viability: 0.703
[16]; first compound 0.08 µM
  relative viability: 0.403
[16]; first compound 0.253 µM
  relative viability: 0.305
[16]; first compound 0.8 µM
  relative viability: 0.349
[16]; first compound 2.53 µM
  relative viability: 0.48
[17]; first compound 0.08 µM
  relative viability: 0.398
[17]; first compound 0.253 µM
  relative viability: 0.62
[17]; first compound 0.8 µM
  relative viability: 0.572
[17]; first compound 2.53 µM
  relative viability: 0.49
[18]; first compound 0.08 µM
  relative viability: 0.42
[18]; first compound 0.253 µM
  relative viability: 0.477
[18]; first compound 0.8 µM
  relative viability: 0.424
[18]; first compound 2.53 µM
  relative viability: 0.47
[19]; first compound 0.08 µM
  relative viability: 0.548
[19]; first compound 0.8 µM
  relative viability: 0.411
[19]; first compound 2.53 µM
  relative viability: 0.729
[23]; first compound 0.08 µM
  relative viability: 0.533
[23]; first compound 0.8 µM
  relative viability: 0.563
[23]; first compound 2.53 µM
  relative viability: 0.557
[20]; first compound 0.08 µM
  relative viability: 0.159
[20]; first compound 0.253 µM
  relative viability: 0.0304
[20]; first compound 0.8 µM
  relative viability: 0.0981
[20]; first compound 2.53 µM
  relative viability: 0.196
[21]; first compound 0.08 µM
  relative viability: 0.628
[21]; first compound 0.253 µM
  relative viability: 0.508
[21]; first compound 0.8 µM
  relative viability: 0.723
[21]; first compound 2.53 µM
  relative viability: 0.715
